These results are taken from US20090226455A1, “COMBINATION THERAPY WITH C-MET AND HER ANTAGONISTS” (Genentech, Inc., priority 2008, published 2009).

For one assay, the system named is EBC-1 shMet-4.5 tumors. The experiment in a line: EBC-1 shMet-4.5 NSCLC xenograft model, tumor growth inhibition. It counts as in vivo, nude mice (nu/nu). To be noted: compared to sucrose control at day 29; pertuzumab 5 mg/kg IP once a week; Dox 1 mg/mL in 5% sucrose drinking water (induces c-met shRNA knockdown).
In the next assay the test system is advanced ovarian cancer. Conditions: 3 subjects with advanced ovarian cancer treated; one subject; cited from earlier work.

Method for EBC-1 shMet-4.5 tumors: Control antibodies mouse IgG2a isotype 10D9-1E11-1F12 (anti-Ragweed) antibody and the human IgG1 isotype hu5B6 (anti-gD) antibody were obtained from the Antibody Engineering Department at Genentech, Inc., in a clear liquid form and were diluted in 1×PBS. Doxycycline (Dox) was prepared fresh at 0.5 or 1 mg/mL in 5% sucrose water and was regularly exchanged every 3 days. In Dox studies, control animals were given 5% sucrose water that was exchanged every 3 days. Materials were stored in a refrigerator set to maintain a temperature range of 4° C. to 8° C. […]
To prepare cells for inoculation into mice, cells were trypsinized, washed with ten milliliters of sterile 1× phosphate buffered saline (PBS). A subset of cells was counted by trypan blue exclusion and the remainder of cells was resuspended in 100 μl of sterile 1× PBS to a concentration of 5×10^7 cells per milliliter. […] Tumors were monitored until they reached a mean volume of 200 mm^3.
Mice in Group 1 were treated with anti-Ragweed control antibody (5 mg/kg, IP, once a week for 5 weeks) and given 5% sucrose drinking water. […] Tumor volumes were monitored through day 29. […]
Tumor inhibition was plotted using KaleidaGraph 3.6 (Synergy Software; Reading, Pa.). Percent growth inhibition (% Inh) was calculated as follows: […]
Tumor incidence was determined by the number of measurable tumors in each group at the end of study. […]

In the case of `C[C@H]1c2cccc(O)c2C(=O)C2=C(O)[C@]3(O)C(=O)C(C(N)=O)=C(O)[C@@H](N(C)C)[C@@H]3[C@@H](O)[C@@H]21` [Dox, Doxycycline, reference compound], the “tumor inhibition (reduction in tumor growth)” value in the assay on EBC-1 shMet-4.5 tumors was found to be 54%. “pertuzumab: humanized antibody that inhibits the dimerization of HER2 with other HER receptors; light and heavy chain SEQ ID NOs 15 and 16”: the clinical response result in the assay on advanced ovarian cancer is given as “durable partial response”. Besides, the “tumor inhibition (reduction in tumor growth)” value with EBC-1 shMet-4.5 tumors stood at 43.6%.
